Source: patent US20160274087A1, “SCREENING ASSAY FOR AGENTS THAT INFLUENCE BETA CELL NUMBER AND/OR PHENOTYPE” (VRIJE UNIVERSITEIT BRUSSEL, priority 2013, published 2016)
Marks after values point to notes of the source that are not given here.

Columns and labels:
beta cells = assay: Immunohistochemical analysis of Ki67 in pancreas after dexamethasone injection; format: in vivo, rat; details: DEX 1 mg/Kg BW daily for 5 days; data not shown
[1] = test system: selected gene targets in FACS-purified beta cells; assay: Q-PCR on FACS-purified beta cells from dexamethasone-injected rats; details: 5 single injections DEX 1 mg/kg BW daily
Description: Control rats were given vehicle (saline).
RNA was extracted using RNeasy columns (Qiagen), and quality was verified using an Agilent Bioanalyzer. Following removal of genomic DNA (TURBO DNA-free, Ambion) and reverse-transcription (High-Capacity cDNA Archive Kit, Applied Biosystems), gene targets were amplified on an ABI Prism 7700 using TaqMan Universal PCR Master Mix and TaqMan MGB probes (Applied Biosystems, assay IDs available on request). Expression levels of target genes were normalized to 4 housekeeping genes (β-actin, HPRT1, rplp2 and psmc5) (ΔCt) and expressed versus a control condition as calibrator (comparative ΔΔCt method).

[2] = Metabolic effects of in vivo dexamethasone administration
[3] = target: T1, glucocorticoid receptor (GR) (Homo sapiens, UniProt P04150); details: cited from earlier work
T1 sequence (P04150 1-777): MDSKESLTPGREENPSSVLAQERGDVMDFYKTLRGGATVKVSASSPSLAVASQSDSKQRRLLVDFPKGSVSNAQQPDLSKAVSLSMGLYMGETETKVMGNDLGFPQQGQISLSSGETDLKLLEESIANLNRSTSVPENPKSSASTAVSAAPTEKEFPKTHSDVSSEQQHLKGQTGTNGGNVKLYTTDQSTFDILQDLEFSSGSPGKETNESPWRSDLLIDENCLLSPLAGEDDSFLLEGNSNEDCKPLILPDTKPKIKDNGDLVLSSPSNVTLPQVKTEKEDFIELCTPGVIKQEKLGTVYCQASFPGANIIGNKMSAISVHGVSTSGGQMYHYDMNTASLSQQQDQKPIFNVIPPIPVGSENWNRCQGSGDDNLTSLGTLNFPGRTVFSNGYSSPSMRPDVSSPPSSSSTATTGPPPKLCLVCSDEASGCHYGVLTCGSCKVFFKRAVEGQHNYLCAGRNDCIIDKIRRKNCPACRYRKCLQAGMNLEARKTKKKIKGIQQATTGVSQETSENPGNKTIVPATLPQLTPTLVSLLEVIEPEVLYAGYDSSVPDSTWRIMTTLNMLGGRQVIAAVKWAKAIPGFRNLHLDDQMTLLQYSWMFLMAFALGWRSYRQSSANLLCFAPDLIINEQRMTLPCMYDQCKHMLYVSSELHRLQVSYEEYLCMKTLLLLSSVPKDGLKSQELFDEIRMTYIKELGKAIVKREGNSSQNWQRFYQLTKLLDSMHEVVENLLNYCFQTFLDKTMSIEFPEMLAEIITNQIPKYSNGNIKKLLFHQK

rat beta cells [4] = assay: Beta cell DNA synthesis/proliferation by EdU (and BrdU) incorporation, incl. LOPAC screen; format: cell-based; details: LOPAC screen at 1 μM, adult rat beta cells, EdU day 3 to 6
Description: (§1) On day 1, 9 and 15 of culture, total numbers of living beta cells per well were determined by semi-automatic cell count, after Hoechst 33342 (Ho) and propidium iodide (PI) staining. Numbers of living beta cells were obtained by subtracting the PI-positive cell numbers from the Ho-positive cell numbers, and correcting for the percent insulin-negative cells, as determined following insulin-immunofluorescence staining. They were expressed as percent of the numbers on day 1. Each condition was also evaluated for increases in the percentage of proliferating beta cells (incorporating the thymidine-analogue 5-ethynyl-2′-deoxyuridine, EdU; 100 μmol/l). To detect beta cells that underwent two successive cycles, cells were sequentially exposed to two different thymidine-analogs, first EdU from day 3 to 6, and then BrdU (100 μmol/l) from day 7 to 10, with a 24-hour label-free period in between. EdU-positive (EdU^+) nuclei were detected with the Click-iT Assay kit (Invitrogen), while BrdU-positive (BrdU^+) nuclei were identified with anti-BrdU antibody.
Freshly purified beta cells were cultured in control medium for 24 h prior to the addition of the LOPAC test compounds (day 1). The culture medium was refreshed on day 3 and the cells were then cultured further with 5-ethynyl-2′-deoxyuridine (EdU; 10 μM) up to day 6. Cell viability and percentage EdU incorporation were quantified after imaging and image analysis using the BD Pathway Bioimager, as described before (Assefa et al., 2014). To test the significance of compound effect on beta cell proliferation, average Z-score for each compound was calculated and a cut-off for potential positive hits was set at a Z-score of greater than three standard deviations. Thus, a compound is considered a hit only if it increases the percent EdU incorporation to above three standard deviation of the plate-averaged percent EdU incorporation.
Sorted beta cells were seeded in 384-well or 6-well plates coated with 804G matrix, and kept in culture for up to 15 days at 37° C. 5% CO2 using Ham F10 supplemented with 1 mM L-glutamine, 0.1 mg/ml streptomycin, 0.075 mg/ml penicillin, 50 μM of isobutyl-1-methylxanthine (IBMX) at 10 mM D-glucose with and without synthetic GCs (6 methyl-prednisolone (6MP), dexamethasone (DEX), GR-modulators (compound A (CPA), mifepristone (MIF), and NFκB inhibitors (JSH-23 en Bay11-7085). Total cell number and beta cell viability was evaluated after incubation with Hoechst 33342 and propidium iodide. All chemicals were from Sigma Life Sciences or Merck. Quantification of cell numbers and analysis of beta-cell viability was done using the Pathway Bioimager (BD Biosciences) and using IPlab and Attovision software for background subtraction as described prior (Assefa et al., 2014). Replicating beta cells were quantified after 24 or 72 hrs incubation with 5-ethynyl-2′-deoxyuridine (EdU, a thymidine analog) using the ClickIT EDU Alexa Fluor assay (Invitrogen). EdU-positive cells were expressed as percentage of total cell number.

rat beta cells [5] = assay: Beta cell viability / cell death (propidium iodide assay); format: cell-based; details: LOPAC screen at 1 μM; adult rat beta cells; day 6; control medium 97
Description: as §1, with “Numbers” for “On day 1, 9 and 15 of culture, total numbers of living beta cells per well were determined by semi-automatic cell count, after Hoechst 33342 (Ho) and propidium iodide (PI) staining. Numbers”, “Each condition was also evaluated for increases in the percentage of proliferating beta cells (incorporating the thymidine-analogue 5-ethynyl-2′-deoxyuridine, EdU; 100 μmol/l).” left out
Absolute number of cells was determined by whole-well imaging using the BD-PathwayBioimager855 (BD-Biosciences). IPLab and AttoVision software packages (BD-Biosciences) were used for image background subtraction, segmentation and quantification.
Freshly purified beta cells were cultured in control medium for 24 h prior to the addition of the LOPAC test compounds (day 1). The culture medium was refreshed on day 3 and the cells were then cultured further with 5-ethynyl-2′-deoxyuridine (EdU; 10 μM) up to day 6. […] Thus, a compound is considered a hit only if it increases the percent EdU incorporation to above three standard deviation of the plate-averaged percent EdU incorporation.

Structure (SMILES): C[C@@H]1C[C@H]2[C@@H]3CCC4=CC(=O)C=C[C@]4(C)[C@@]3(F)[C@@H](O)C[C@]2(C)[C@@]1(O)C(=O)CO [DEX, dexamethasone]
- increase of the percentage beta cells positive for Ki67 (beta cells): 3 fold
- Cyclin B1 mRNA level (ΔΔCt values relative to control, adult male) [1]: 6.5 ± 2.5 ^3
- Cyclin B2 mRNA level (ΔΔCt values relative to control, adult male) [1]: 10.8 ± 5.1 ^3
- CyclinD1 mRNA level (ΔΔCt values relative to control, adult male) [1]: 0.9 ± 0.4 ^
- DLK1 mRNA level (ΔΔCt values relative to control, adult male) [1]: 33.0 ± 19.1 ^3
- FKBP5 mRNA level (ΔΔCt values relative to control, adult male) [1]: 2.4 ± 0.2 ^
- ICAM1 mRNA level (ΔΔCt values relative to control, adult male) [1]: 0.1 ± 0.1 ^3
- MafA mRNA level (ΔΔCt values relative to control, adult male) [1]: 0.3 ± 0.1 ^
- MafB mRNA level (ΔΔCt values relative to control, adult male) [1]: 0.6 ± 0.2 ^
- NPY mRNA level (ΔΔCt values relative to control, adult male) [1]: 3.3 ± 0.5 ^3
- NR3C1 mRNA level (ΔΔCt values relative to control, adult male) [1]: 0.5 ± 0.1 ^2
- Pdx1 mRNA level (ΔΔCt values relative to control, adult male) [1]: 0.4 ± 0.2 ^
- loss of body weight ([2]; DEX 1 mg/Kg BW daily for 5 consecutive days): 20%
- insulin content ([2]; DEX 1 mg/Kg BW daily for 5 days, MOCK 48 ± 7): 22 ± 3 ng/K beta cells
- IPGT 90 min ([2]; DEX 1 mg/Kg BW daily for 5 days, MOCK 81 ± 3): 278 ± 44 mg/dL
- IPGT 120 min ([2]; DEX 1 mg/Kg BW daily for 5 days, MOCK 82 ± 2): 227 ± 62 mg/dL
- IPGT 60 min ([2]; DEX 1 mg/Kg BW daily for 5 days, MOCK 83 ± 5): 375 ± 54 mg/dL
- Fasting glycemia ([2]; DEX 1 mg/Kg BW daily for 5 days, MOCK 85 ± 3): 169 ± 77 mg/dL
- Islet insulin content ([2]; DEX 1 mg/Kg BW daily for 5 days, MOCK 100): 37 ** ng/islet
- IPGT 30 min ([2]; DEX 1 mg/Kg BW daily for 5 days, MOCK 180 ± 14): 456 ± 41 mg/dL
- IPGT 15 min ([2]; DEX 1 mg/Kg BW daily for 5 days, MOCK 360 ± 43): 497 ± 16 mg/dL
- Serum insulin ([2]; DEX 1 mg/Kg BW daily for 5 days, MOCK 4927 ± 724): 8447 ± 472 pg/mL
- Body weight Day 6 ([2]; DEX 1 mg/Kg BW daily i.p. for 5 days, MOCK 382 ± 13): 304 ± 11 g
- Body weight Day 0 ([2]; DEX group before treatment, MOCK 356 ± 8): 363 ± 13 g

Structure (SMILES): C[C@]12C=CC(=O)C=C1CC[C@H]1[C@@H]3C[C@@H](O)[C@](O)(C(=O)CO)[C@@]3(C)C[C@H](O)[C@@]12F [Triamcinolone]
- Relative Potencies GR [3]: 5
- Percent EdU+ cells (rat beta cells [4]; control medium 5.6): 31.1%
- Z-Score (rat beta cells [4]; hit cut-off three standard deviations): 5.9
- Percent viable cells (rat beta cells [5]): 99%
